Data: ChEMBL document CHEMBL1201862, “PubChem BioAssay data set” (2004)
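Values below derive from 48-hour exposures of cells grown in 96-well plates, with endpoints linearly interpolated between the two concentrations bracketing the appropriate inhibition level. Here, GI50 denotes the concentration required for 50% inhibition of growth.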 Active and inactive are the calls of the source. Rule as the data show it: active = GI50 up to about 1.1 µM and inactive = higher.

Tests used:
Assay in all cases: DTP human tumour cell line panel, 48 h
A549 = tested on: A549
RXF 393 = tested on: RXF 393
UACC-62 = tested on: UACC-62
SF-295 = tested on: SF-295
NCI-H522 = tested on: NCI-H522
MOLT-4 = tested on: MOLT-4
U-251 = tested on: U-251
HCT-15 = tested on: HCT-15
HCT-116 = tested on: HCT-116
TK-10 = tested on: TK-10
Malme-3M = tested on: Malme-3M
MDA-MB-435 = tested on: MDA-MB-435
SNB-75 = tested on: SNB-75
PC-3 = tested on: PC-3
MCF7 = tested on: MCF7
SK-MEL-2 = tested on: SK-MEL-2
A498 = tested on: A498
HOP-62 = tested on: HOP-62
CCRF-CEM = tested on: CCRF-CEM
SR = tested on: SR

| SMILES | GI50 (A549) | GI50 (RXF 393) | GI50 (UACC-62) | GI50 (SF-295) | GI50 (NCI-H522) | GI50 (MOLT-4) | GI50 (U-251) | GI50 (HCT-15) [µM] | GI50 (HCT-116) | GI50 (TK-10) | GI50 (Malme-3M) | GI50 (MDA-MB-435) | GI50 (SNB-75) | GI50 (PC-3) | GI50 (MCF7) | GI50 (SK-MEL-2) | GI50 (A498) | GI50 (HOP-62) | GI50 (CCRF-CEM) | GI50 (SR) |
| --- | --- | --- | --- | --- | --- | --- | --- | --- | --- | --- | --- | --- | --- | --- | --- | --- | --- | --- | --- | --- |
| COc1cc(C2c3cc4c(cc3OC(Nc3ccccc3)C2C)OCO4)cc(OC)c1O (stereo unspecified) | 3.85 µM (inactive) | 4.45 µM (inactive) | 3.66 µM (inactive) | 4.28 µM (inactive) | 2.35 µM (inactive) | 0.836 µM (active) | 3.95 µM (inactive) | 3.02 | 3.93 µM (inactive) | 3.49 µM (inactive) | 5.47 µM (inactive) | 0.394 µM (active) | 1.63 µM (inactive) | 2.8 µM (inactive) | 4.47 µM (inactive) | 2.22 µM (inactive) |  |  |  |  |
| CCOC(=O)C(CC(C)C)NC(=O)C(Cc1ccc(N(CCCl)CCCl)cc1)NC(C)=O (stereo unspecified) | 13.4 µM (inactive) | 1.93 µM (inactive) | 1.4 µM (inactive) | 7.05 µM (inactive) | 1.57 µM (inactive) |  | 7.91 µM (inactive) | 9.71 | 18.7 µM (inactive) | 15.2 µM (inactive) | 2.44 µM (inactive) | 3.41 µM (inactive) | 5.96 µM (inactive) | 15.8 µM (inactive) | 3.69 µM (inactive) | 2.45 µM (inactive) | 15.7 µM (inactive) | 3.01 µM (inactive) | 0.621 µM (active) |  |
| c1ccc2c(CSCc3cccc4ccccc34)cccc2c1 | > 100 µM (inactive) | > 100 µM (inactive) | > 100 µM (inactive) | > 100 µM (inactive) | 99.3 µM (inactive) | 34.5 µM (inactive) | 85.1 µM (inactive) | 1.91 | 57.5 µM (inactive) | > 100 µM (inactive) | 58.9 µM (inactive) | > 100 µM (inactive) | > 100 µM (inactive) | 43.4 µM (inactive) |  | > 100 µM (inactive) | > 100 µM (inactive) | > 100 µM (inactive) | 3.5 µM (inactive) | 28.6 µM (inactive) |
| O=c1[nH]nc(Cc2ccccc2)n1/N=C/c1ccc([N+](=O)[O-])cc1 | > 100 µM (inactive) | > 100 µM (inactive) | > 100 µM (inactive) | > 100 µM (inactive) | > 100 µM (inactive) | > 100 µM (inactive) | > 100 µM (inactive) | > 100 | > 100 µM (inactive) | > 100 µM (inactive) | > 100 µM (inactive) | > 100 µM (inactive) | 42 µM (inactive) | > 100 µM (inactive) | > 100 µM (inactive) | 49 µM (inactive) | > 100 µM (inactive) | > 100 µM (inactive) | > 100 µM (inactive) |  |
| CC(=O)C1C(=O)C(=O)N(c2ccc(Cl)c(Cl)c2)C1=O (stereo unspecified) | > 100 µM (inactive) |  | > 100 µM (inactive) | > 100 µM (inactive) |  | > 100 µM (inactive) | > 100 µM (inactive) | > 100 | > 100 µM (inactive) | > 100 µM (inactive) |  | > 100 µM (inactive) | > 100 µM (inactive) | > 100 µM (inactive) | > 100 µM (inactive) | > 100 µM (inactive) |  | > 100 µM (inactive) |  |  |
| C1=CN2C[n+]3ccc4ccccc4c3N=C2c2ccccc21 | 1.75 µM (inactive) |  | 1.93 µM (inactive) | 2.69 µM (inactive) | 0.622 µM (active) | 1.91 µM (inactive) | 0.356 µM (active) | 66.4 | 2.82 µM (inactive) | 15.3 µM (inactive) | 0.632 µM (active) | 2.19 µM (inactive) |  | 8.2 µM (inactive) | 0.929 µM (active) | 2.67 µM (inactive) |  | 7.57 µM (inactive) | 3.3 µM (inactive) | 1.11 µM (active) |
| CO[C@@]12C[C@@H](C)C3=CCC(C)=C3CC1=C(C)C(=O)O2 |  |  | > 100 µM (inactive) | > 100 µM (inactive) |  | 45.7 µM (inactive) | > 100 µM (inactive) | > 100 | > 100 µM (inactive) | > 100 µM (inactive) | > 100 µM (inactive) | > 100 µM (inactive) | 63.4 µM (inactive) | 85.7 µM (inactive) |  | > 100 µM (inactive) | > 100 µM (inactive) |  | 50.8 µM (inactive) | 44.2 µM (inactive) |
| NC(Cc1cccc([N+](=O)[O-])c1)C(=O)O (stereo unspecified) | > 100 µM (inactive) | > 100 µM (inactive) | > 100 µM (inactive) | > 100 µM (inactive) | > 100 µM (inactive) | > 100 µM (inactive) | > 100 µM (inactive) | > 100 | > 100 µM (inactive) | > 100 µM (inactive) | > 100 µM (inactive) | > 100 µM (inactive) |  | > 100 µM (inactive) | > 100 µM (inactive) | > 100 µM (inactive) | > 100 µM (inactive) | > 100 µM (inactive) | > 100 µM (inactive) |  |
